Experimental data from ChEMBL document CHEMBL5136986, “DYRK1A inhibitors for disease therapy: Current status and perspectives” (Eur J Med Chem, 2022).
pIC50: −log10 of the molar value. Blank lines part the entries; values can stand above or below the molecule they belong to.

Tests used:
[1] = biological target: T1, Dual specificity tyrosine-phosphorylation-regulated kinase 1A (Homo sapiens, UniProt Q13627); assay: Inhibition of DYRK1A (unknown origin) using KKISGRLSPIMTEQ as substrate incubated for 30 mins in presence of ATP by ADP-Glo assay
[2] = Displacement of [gamma-33P]-ATP from GSK-3 derived from porcine brain using YRRAAVPPSPSLSRHSSPHQSpEDEEE as substrate incubated for 30 mins by scintillation counting analysis; set-up: species or system Sus scrofa
[3] = biological target: T1, Dual specificity tyrosine-phosphorylation-regulated kinase 1A; assay: Inhibition of GST-fused recombinant human DYRK1A expressed in Escherichia coli using KKISGRLSPIMTEQ as substrate in presence of ATP
[4] = biological target: T1, Dual specificity tyrosine-phosphorylation-regulated kinase 1A; assay: Inhibition of DYRK1A (unknown origin)
[5] = biological target: T1, Dual specificity tyrosine-phosphorylation-regulated kinase 1A; assay: Inhibition of N-terminal 6His-tagged recombinant human DYRK1A ([…] residues) expressed in Escherichia coli BL21(DE3) using RARPGTPALRE as substrate incubated for 60 mins in presence of ATP/NADH by enzymatic assay

pIC50 [1]: < 5.00
Structure (SMILES): O=C1c2c([nH]c3c(Cl)cccc23)CCC1N1CCCCC1 (centres undefined)

pIC50 [4]: 7.41
Structure (SMILES): Nc1ncc(-c2ccccc2)nc1C(=O)Nc1cnccc1N1CCC(N)CC1

pIC50 [1]: 5.80
Structure (SMILES): O=C1CCCc2[nH]c3c(Cl)cccc3c21

The remaining lines, values behind:

Structure (SMILES): O=c1c2c(ccc3nc(-c4cnccn4)sc32)ncn1Cc1ccccc1
pIC50 [2]: 5.22
pIC50 [3]: 6.95

Structure (SMILES): O=c1c2c(ccc3nc(-c4cccnc4)sc32)ncn1Cc1ccccc1
pIC50 [2]: 5.43

Structure (SMILES): Nc1ncc(-c2ccccc2F)nc1C(=O)Nc1cnccc1N1CCC(C(=O)O)CC1
pIC50 [4]: 6.61

Structure (SMILES): COc1c(CC=C(C)C)c(O)cc2oc(-c3ccc(O)cc3O)cc12 [LICOCOUMARONE]
pIC50 [5]: 4.90

Structure (SMILES): O=c1c2c(ccc3nc(-c4cccnc4)sc32)ncn1C1CC1
pIC50 [2]: 7.17
